What was measured:
Assay in all cases: relative viability (nuclei count vs DMSO), 5 days (fraction); higher = more cells survive
[1] = test system: 201T
Summary of the method: (§1)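 Nuclei were stained with Hoechst during a one-step fixation (final 0.05% Triton X-100, 1% formaldehyde, 1 ug/ml Hoechst) carried out 5 days after dosing, then counted on 4× images. The cells, lung cancer lines in 1536-well plates, had been dosed by pin tool the day after seeding with one drug alone or a fixed anchor-drug dose plus five library-drug doses (not always all listed) in √10 steps. Relative viability is the nuclei count in treated wells divided by that in vehicle wells, and each value is the median of duplicate plates.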

[2] = test system: CAL-12T
Summary of the method: as §1

[3] = test system: COR-L23
Summary of the method: as §1

[4] = test system: ChaGo-K-1
Summary of the method: as §1

[5] = test system: HOP-62
Summary of the method: as §1

[6] = test system: LC-2-ad
Summary of the method: as §1

[7] = test system: NCI-H1355
Summary of the method: as §1

[8] = test system: NCI-H1651
Summary of the method: as §1

[9] = test system: NCI-H1666
Summary of the method: as §1

[10] = test system: NCI-H1734
Summary of the method: as §1

[11] = test system: NCI-H1993
Summary of the method: as §1

[12] = test system: NCI-H2085
Summary of the method: as §1

[13] = test system: NCI-H2228
Summary of the method: as §1

[14] = test system: NCI-H322M
Summary of the method: as §1

[15] = test system: NCI-H520
Summary of the method: as §1

[16] = test system: NCI-H661
Summary of the method: as §1

[17] = test system: NCI-H838
Summary of the method: as §1

[18] = test system: RERF-LC-KJ
Summary of the method: as §1

With `COCC1(CO)C(=O)C2CCN1CC2` (stereo unspecified) [PRIMA-1MET] + CC(C)C[C@H](NC(=O)[C@H](Cc1ccccc1)NC(=O)c1cnccn1)B(O)O [Bortezomib] (partner 0.002 µM) the relative viability ([1]; first compound 0.2 µM) was 1.18, the relative viability ([1]; first compound 0.6325 µM) was 1.07 and the relative viability ([1]; first compound 2 µM) was 1.07. For the same compound, the relative viability ([1]; first compound 6.325 µM) was 1.15, the relative viability ([1]; first compound 20 µM) was 1.08 and the relative viability ([2]; first compound 0.2 µM) was 0.862. For the same compound, the relative viability ([2]; first compound 0.6325 µM) was 0.947, the relative viability ([2]; first compound 2 µM) was 1.15 and the relative viability ([2]; first compound 6.325 µM) was 0.946. For the same compound, the relative viability ([2]; first compound 20 µM) was 0.245, the relative viability ([3]; first compound 0.2 µM) was 1.29 and the relative viability ([3]; first compound 0.6325 µM) was 0.97. It also gave a relative viability ([3]; first compound 2 µM) of 0.954, a relative viability ([3]; first compound 6.325 µM) of 1.05 and a relative viability ([3]; first compound 20 µM) of 0.0202. It also gave a relative viability ([4]; first compound 0.2 µM) of 1.21, a relative viability ([4]; first compound 0.6325 µM) of 0.83 and a relative viability ([4]; first compound 2 µM) of 1.28. The relative viability ([4]; first compound 6.325 µM) was 0.988, the relative viability ([4]; first compound 20 µM) was 0.32 and the relative viability ([5]; first compound 0.2 µM) was 1.02. It also gave a relative viability ([5]; first compound 0.6325 µM) of 0.648, a relative viability ([5]; first compound 2 µM) of 0.965 and a relative viability ([5]; first compound 6.325 µM) of 0.736. For the same compound, the relative viability ([5]; first compound 20 µM) was 0.443, the relative viability ([6]; first compound 0.2 µM) was 1.11 and the relative viability ([6]; first compound 0.6325 µM) was 0.981. For the same compound, the relative viability ([6]; first compound 2 µM) was 0.695, the relative viability ([6]; first compound 6.325 µM) was 1.07 and the relative viability ([6]; first compound 20 µM) was 0.91. For the same compound, the relative viability ([7]; first compound 0.2 µM) was 1.26, the relative viability ([7]; first compound 0.6325 µM) was 1.12 and the relative viability ([7]; first compound 2 µM) was 1.21. The relative viability ([7]; first compound 6.325 µM) was 1.31, the relative viability ([7]; first compound 20 µM) was 1.18 and the relative viability ([8]; first compound 0.2 µM) was 0.929. For the same compound, the relative viability ([8]; first compound 0.6325 µM) was 0.847, the relative viability ([8]; first compound 2 µM) was 0.874 and the relative viability ([8]; first compound 6.325 µM) was 0.975. For the same compound, the relative viability ([8]; first compound 20 µM) was 0.844, the relative viability ([9]; first compound 0.2 µM) was 0.836 and the relative viability ([9]; first compound 0.6325 µM) was 0.777. It also gave a relative viability ([9]; first compound 2 µM) of 0.816, a relative viability ([9]; first compound 6.325 µM) of 0.983 and a relative viability ([9]; first compound 20 µM) of 0.305. For the same compound, the relative viability ([10]; first compound 0.2 µM) was 1.16, the relative viability ([10]; first compound 0.6325 µM) was 0.75 and the relative viability ([10]; first compound 2 µM) was 0.812. It also gave a relative viability ([10]; first compound 6.325 µM) of 0.967, a relative viability ([10]; first compound 20 µM) of 0.224 and a relative viability ([11]; first compound 0.2 µM) of 1.21. It also gave a relative viability ([11]; first compound 0.6325 µM) of 1.07, a relative viability ([11]; first compound 2 µM) of 1.94 and a relative viability ([11]; first compound 6.325 µM) of 1.02. It also gave a relative viability ([11]; first compound 20 µM) of 1.24, a relative viability ([12]; first compound 0.2 µM) of 1.08 and a relative viability ([12]; first compound 0.6325 µM) of 0.978. For the same compound, the relative viability ([12]; first compound 2 µM) was 0.856, the relative viability ([12]; first compound 6.325 µM) was 0.609 and the relative viability ([12]; first compound 20 µM) was 0.392. The relative viability ([13]; first compound 0.2 µM) was 1.1, the relative viability ([13]; first compound 0.6325 µM) was 0.957 and the relative viability ([13]; first compound 2 µM) was 1.09. For the same compound, the relative viability ([13]; first compound 6.325 µM) was 1.04, the relative viability ([13]; first compound 20 µM) was 0.0398 and the relative viability ([14]; first compound 0.2 µM) was 1.3. For the same compound, the relative viability ([14]; first compound 6.325 µM) was 1.29, the relative viability ([14]; first compound 20 µM) was 1.06 and the relative viability ([15]; first compound 0.2 µM) was 0.545. It also gave a relative viability ([15]; first compound 0.6325 µM) of 0.503, a relative viability ([15]; first compound 6.325 µM) of 0.613 and a relative viability ([15]; first compound 20 µM) of 0.113. The relative viability ([16]; first compound 0.2 µM) was 0.846, the relative viability ([16]; first compound 0.6325 µM) was 0.69 and the relative viability ([16]; first compound 6.325 µM) was 0.817. It also gave a relative viability ([16]; first compound 20 µM) of 0.623, a relative viability ([17]; first compound 0.2 µM) of 0.9 and a relative viability ([17]; first compound 0.6325 µM) of 0.652. For the same compound, the relative viability ([17]; first compound 2 µM) was 0.745, the relative viability ([17]; first compound 6.325 µM) was 0.978 and the relative viability ([17]; first compound 20 µM) was 0.263. It also gave a relative viability ([18]; first compound 0.2 µM) of 1.35, a relative viability ([18]; first compound 0.6325 µM) of 1.04 and a relative viability ([18]; first compound 2 µM) of 1.13. It also gave a relative viability ([18]; first compound 6.325 µM) of 1.15 and a relative viability ([18]; first compound 20 µM) of 1.04.
